In patent US20250230193A1, “CYCLIC COMPOUND HAVING SELECTIVE KRAS INHIBITORY EFFECT ON HRAS AND NRAS” (CHUGAI SEIYAKU KABUSHIKI KAISHA, priority 2022, published 2025):
Where a SMILES comes first, the peptide text is derived from it. Bridges are numbered along the chain shown (N, C = ends). [ ]: non-standard residue; d: D form. The star is where a group is joined. hPhe(3-Cl-4-CF3) = N[C@@H](CCc1ccc(C(F)(F)F)c(Cl)c1)C(=O)O; NPrPhe(4-CF3) = CCCN[C@@H](Cc1ccc(C(F)(F)F)cc1)C(=O)O; NMeGly(cPent) = CN[C@H](C(=O)O)C1CCCC1; NMeD = CN[C@@H](CC(=O)O)C(=O)O; NMeL = CN[C@@H](CC(C)C)C(=O)O; Morpholide = C1CN(*)CCO1; Ac5c = NC1(C(=O)O)CCCC1; NPrGly = CCCNCC(=O)O; Sar = CNCC(=O)O

How the values were obtained:
[1] = biological target: GDP-bound NRAS wild-type protein (Homo sapiens, UniProt P01111); assay: Binding to NRAS by surface plasmon resonance (SPR), Single Cycle Kinetics; conditions: for NRAS/KRAS (ratio of KD value with respect to GDP-bound NRAS wild-type protein to KD value with respect to KRAS): class symbols
Chain of GDP-bound NRAS wild-type protein (P01111 whole entry): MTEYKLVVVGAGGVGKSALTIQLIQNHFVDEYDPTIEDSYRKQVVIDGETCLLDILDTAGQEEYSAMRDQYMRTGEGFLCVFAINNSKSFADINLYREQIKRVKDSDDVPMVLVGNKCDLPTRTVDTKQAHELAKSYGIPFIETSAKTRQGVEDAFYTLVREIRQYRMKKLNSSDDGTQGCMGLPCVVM

[2] = biological target: GDP-bound HRAS wild-type protein (Homo sapiens, UniProt P01112); assay: Binding to HRAS by surface plasmon resonance (SPR), Single Cycle Kinetics; conditions: for HRAS/KRAS (ratio of KD value with respect to GDP-bound HRAS wild-type protein to KD value with respect to KRAS): class symbols
Chain of GDP-bound HRAS wild-type protein (P01112 whole entry): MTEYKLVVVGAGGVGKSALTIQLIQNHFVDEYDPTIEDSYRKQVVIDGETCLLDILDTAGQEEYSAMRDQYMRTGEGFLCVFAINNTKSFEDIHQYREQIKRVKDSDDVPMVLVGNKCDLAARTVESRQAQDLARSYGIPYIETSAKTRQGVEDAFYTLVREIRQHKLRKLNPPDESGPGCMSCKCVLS

[3] = SPR, GDP-bound NRAS wild-type vs GDP-bound KRAS wild-type
[4] = SPR, GDP-bound HRAS wild-type vs GDP-bound KRAS wild-type

CCCN1CC(=O)N(C)CC(=O)N(CCC)[C@@H](Cc2ccc(C(F)(F)F)cc2)C(=O)N(C)CC(=O)N[C@@H](CCc2ccc(C(F)(F)F)c(Cl)c2)C(=O)N2CCC[C@H]2C(=O)NC2(CCCC2)C(=O)N(C)[C@@H](C2CCCC2)C(=O)N(C)[C@H](C(=O)N2CCOCC2)CC(=O)N(C)[C@@H](CC(C)C)C(=O)N[C@@H]([C@@H](C)CC)C1=O [PP0253] ([NMeL]I[NPrGly][Sar][NPrPhe(4-CF3)][Sar][hPhe(3-Cl-4-CF3)]P[Ac5c][NMeGly(cPent)][NMeD]-Morpholide; lactam N-11)
NRAS/KRAS (ratio of KD for GDP-bound NRAS wild-type to KD for KRAS) ([1]; KD ratio NRAS/KRAS, SPR): B (a compound having 3 or more and less than 10 is denoted as B) | HRAS/KRAS (ratio of KD for GDP-bound HRAS wild-type to KD for KRAS) ([2]; KD ratio HRAS/KRAS, SPR): B (a compound having 3 or more and less than 10 is denoted as B)

CCO[C@@H]1C[C@H]2C(=O)NC3(CCCC3)C(=O)N(C)[C@@H](C3CCCC3)C(=O)N(C)[C@H](C(=O)N(C)C)CC(=O)N(C)[C@@H](CC(C)C)C(=O)N[C@@H]([C@@H](C)CC)C(=O)N(C)CC(=O)N(C)[C@H]3C/C=C\CCN(C3=O)[C@@H](Cc3ccc(C(F)(F)F)cc3)C(=O)N(C)CC(=O)N[C@@H](CCc3cc(F)c(Cl)c(F)c3)C(=O)N2C1 [PP2269]
NRAS/KRAS (ratio of KD value with respect to NRAS to KD value with respect to KRAS) [1, 3]: A (a compound having 10 or more and less than 20 is denoted as A) | HRAS/KRAS (ratio of KD value with respect to HRAS to KD value with respect to KRAS) [2, 4]: A (a compound having 10 or more and less than 20 is denoted as A)

CCC(CC)[C@H]1C(=O)N(C)[C@H](C(=O)N(C)C)CC(=O)N(C)[C@@H](COC)C(=O)N[C@@H]([C@@H](C)CC)C(=O)N(C)CC(=O)N(C)[C@H]2C/C=C\CCN(C2=O)[C@@H](Cc2ccc(C)cc2)C(=O)N(C)CC(=O)N[C@@H](CCc2ccc(C(F)(F)F)c(OC)c2)C(=O)N2CCCCC[C@H]2C(=O)NC2(CC(C)(C)C2)C(=O)N1C [PP2970]
NRAS/KRAS (ratio of KD value with respect to GDP-bound NRAS wild-type protein to KD value with respect to KRAS) ([1]; KD ratio NRAS/KRAS): A (a compound having 10 or more and less than 20 is denoted as A) | HRAS/KRAS (ratio of KD value with respect to GDP-bound HRAS wild-type protein to KD value with respect to KRAS) ([2]; KD ratio HRAS/KRAS): A (a compound having 10 or more and less than 20 is denoted as A)

CC[C@H](C)[C@@H]1NC(=O)[C@H](CC)N(C)C(=O)C[C@@H](C(=O)N(C)C)N(C)C(=O)[C@H](C2CCCC2)N(C)C(=O)C2(CCC2)NC(=O)[C@@H]2CCCN2C(=O)[C@H](CCc2cc(C)c(Cl)c(C)c2)NC(=O)CN(C)C(=O)[C@H](Cc2ccc(C(F)(F)F)cc2)N2CC/C=C\C[C@@H](C2=O)N(C)C(=O)CN(C)C1=O [PP1822]
NRAS/KRAS (ratio of KD value for NRAS to KD value for KRAS) ([1]; KD ratio, GDP-bound NRAS wild-type vs GDP-bound KRAS wild-type, SPR): A (a compound having 10 or more and less than 20 is denoted as A) | HRAS/KRAS (ratio of KD value for HRAS to KD value for KRAS) ([2]; KD ratio, GDP-bound HRAS wild-type vs GDP-bound KRAS wild-type, SPR): B (a compound having 3 or more and less than 10 is denoted as B)

CCC[C@H]1C(=O)N[C@@H]([C@@H](C)CC)C(=O)N(C)CC(=O)N(C)[C@H]2C/C=C\CCN(C2=O)[C@@H](Cc2ccc(C)cc2)C(=O)N(C)CC(=O)N[C@@H](CCc2cc(Cl)c3sccc3c2)C(=O)N2C[C@H](OCC)C[C@H]2C(=O)NC2(CC(C)(C)C2)C(=O)N(C)[C@@H](C(CC)CC)C(=O)N(C)[C@H](C(=O)N(C)C)CC(=O)N1C [PP2890]
NRAS/KRAS (ratio of KD value with respect to GDP-bound NRAS wild-type protein to KD value with respect to KRAS) ([1]; KD ratio NRAS/KRAS): AA (a compound having 20 or more is denoted as AA) | HRAS/KRAS (ratio of KD value with respect to GDP-bound HRAS wild-type protein to KD value with respect to KRAS) ([2]; KD ratio HRAS/KRAS): A (a compound having 10 or more and less than 20 is denoted as A)

CCO[C@@H]1C[C@H]2C(=O)NC3(CCCC3)C(=O)N(C)[C@@H](C3CCCC3)C(=O)N(C)[C@H](C(=O)N(C)C)CC(=O)N(C)[C@@H](CC(C)C)C(=O)N[C@@H]([C@@H](C)CC)C(=O)N(C)CC(=O)N(C)[C@H]3C/C=C\CCN(C3=O)[C@@H](Cc3ccc(C(F)(F)F)cc3)C(=O)N(C)CC(=O)N[C@@H](CCc3ccc(C(F)(F)F)c(Cl)c3)C(=O)N2C1 [PP2838]
NRAS/KRAS (ratio of KD value with respect to GDP-bound NRAS wild-type protein to KD value with respect to KRAS) ([1]; KD ratio NRAS/KRAS): AA (a compound having 20 or more is denoted as AA) | HRAS/KRAS (ratio of KD value with respect to GDP-bound HRAS wild-type protein to KD value with respect to KRAS) ([2]; KD ratio HRAS/KRAS): A (a compound having 10 or more and less than 20 is denoted as A)

CCC[C@H]1C(=O)N[C@@H]([C@@H](C)CC)C(=O)N2CCC[C@H]2C(=O)N(C)[C@H]2C/C=C\CCN(C2=O)[C@@H](CC2CCC(F)(F)CC2)C(=O)N(C)CC(=O)N[C@@H](CCc2ccc(C(F)(F)F)c(OC)c2)C(=O)N2C[C@@H](C)C[C@H]2C(=O)N(C)C2(CCC2)C(=O)N(C)[C@@H](C2CCCC2)C(=O)N(C)[C@H](C(=O)N(C)C)CC(=O)N1C [PP2380]
NRAS/KRAS (ratio of KD value with respect to NRAS to KD value with respect to KRAS) [1, 3]: A (a compound having 10 or more and less than 20 is denoted as A) | HRAS/KRAS (ratio of KD value with respect to HRAS to KD value with respect to KRAS) [2, 4]: A (a compound having 10 or more and less than 20 is denoted as A)
